Data on two compounds can be found in patent US20150283237A1, “CTLA-4 BLOCKADE WITH METRONOMIC CHEMOTHERAPY FOR THE TREATMENT OF CANCER” (priority 2014, published 2015).

One data set relates to EMT-6/P tumors. Briefly: Growth and event-free survival of subcutaneously implanted EMT-6/P tumors in BALB/c mice. It is filed as in vivo, mouse. The conditions noted are these: first experiment, FIG. 1A; s.c. EMT-6/P tumors in BALB/c mice, therapy from 50 mm3.
For data set [1] the following is noted: mouse, in vivo.
From the text: To assess the relative toxicity of the therapies, body weights of the mice over the course of the experiment was monitored, as in the previous studies (du Manoir et al., Clin Cancer Res., 2006, 12:904-16; Francia et al., Mol Cancer Ther., 2012, 11:680-89).
Mice were monitored twice weekly for tumor growth, as measured using Vernier calipers, and calculated using the formula (length×width)/2, and for fluctuations in body weight. Institutional guidelines were followed to determine when the experimental end points were reached. Results were also plotted as event-free survival (Kaplan-Meier analysis) over time, where the duration of event-free survival was defined as time to primary tumor progression beyond 1,200 mm3 or >15% weight loss, as in the previous study (du Manoir et al., Clin Cancer Res., 2006, 12, 904-16).

Where a name gives a salt, the structure may show the parent alone.

Method for EMT-6/P tumors: The combination of CTLA-4 blockade with metronomic chemotherapy regimens was evaluated. Murine EMT-6 breast tumor cells were subcutaneously implanted into syngeneic BALB/c mice (n=6-8/group) and therapies on the established tumors were evaluated. Murine CTLA-4 blockade was achieved using anti-mouse CD152 (CTLA-4), clone 9H10, injected on day 1 (100 μg/mouse) and on day 6 (35 μg/mouse) of therapy. Anti-CTLA-4 therapy was administered alone or combined with metronomic regimens. These included: (a) bolus (150 mg/kg, i.p.) CTX followed by metronomic CTX (20 mg/kg/day, p.o.), (b) metronomic CTX, and (c) sequential gemcitabine therapy (160 mg/kg every 3 days, i.p.) given when the tumors relapsed after the anti-CTLA-4 therapy.
Anti-CTLA-4 therapy combined with bolus plus low-dose CTX. To evaluate whether metronomic CTX regimens could be combined effectively with an anti-CTLA-4 treatment, a combination regimen was tested on subcutaneously implanted EMT-6/P tumors (FIG. 1A). For the chemotherapy component, a bolus with low dose CTX protocol consisting of a bolus of CTX (given on day 1 as a 150 mg/kg, i.p. injection) plus low-dose CTX (20 mg/kg/day, p.o., from day 1) was used. […]
Mice were monitored twice weekly for tumor growth, as measured using Vernier calipers, and calculated using the formula (length×width)/2, and for fluctuations in body weight. […]

Consider `O=P1(N(CCCl)CCCl)NCCCO1` (centres unmarked) [bolus with low dose CTX, Cyclophosphamide], for which the “impact of therapy on tumor growth” value in the data set with EMT-6/P tumors was “minimal reduction in tumor growth”.
Turning to `Nc1ccn([C@@H]2O[C@H](CO)[C@@H](O)C2(F)F)c(=O)n1` [gemcitabine, Gemcitabine hydrochloride], the “body weight change / toxicity” value in data set [1] was “slight weight drop”.
